Patent US20090270371A1, “QUINOLINE DERIVATIVES USEFUL IN THE TREATMENT OF MGLUR5 RECEPTOR-MEDIATED DISORDERS” (priority 2005, published 2009)

These molecules were tested against T1, rat mGluR5 receptors (Rattus norvegicus, UniProt P31424) (assay: mGluR5 receptor binding test, rat cerebro-cortical membrane preparation, [3H]-M-MPEP). Conditions: affinity for rat mGluR5 receptors; [3H]-M-MPEP (2 nM) radioligand.
T1 construct: rat cerebro-cortical membrane preparation was used; from tissue; host or cells: rat cerebral cortex membranes
T1 sequence (P31424 21-1203): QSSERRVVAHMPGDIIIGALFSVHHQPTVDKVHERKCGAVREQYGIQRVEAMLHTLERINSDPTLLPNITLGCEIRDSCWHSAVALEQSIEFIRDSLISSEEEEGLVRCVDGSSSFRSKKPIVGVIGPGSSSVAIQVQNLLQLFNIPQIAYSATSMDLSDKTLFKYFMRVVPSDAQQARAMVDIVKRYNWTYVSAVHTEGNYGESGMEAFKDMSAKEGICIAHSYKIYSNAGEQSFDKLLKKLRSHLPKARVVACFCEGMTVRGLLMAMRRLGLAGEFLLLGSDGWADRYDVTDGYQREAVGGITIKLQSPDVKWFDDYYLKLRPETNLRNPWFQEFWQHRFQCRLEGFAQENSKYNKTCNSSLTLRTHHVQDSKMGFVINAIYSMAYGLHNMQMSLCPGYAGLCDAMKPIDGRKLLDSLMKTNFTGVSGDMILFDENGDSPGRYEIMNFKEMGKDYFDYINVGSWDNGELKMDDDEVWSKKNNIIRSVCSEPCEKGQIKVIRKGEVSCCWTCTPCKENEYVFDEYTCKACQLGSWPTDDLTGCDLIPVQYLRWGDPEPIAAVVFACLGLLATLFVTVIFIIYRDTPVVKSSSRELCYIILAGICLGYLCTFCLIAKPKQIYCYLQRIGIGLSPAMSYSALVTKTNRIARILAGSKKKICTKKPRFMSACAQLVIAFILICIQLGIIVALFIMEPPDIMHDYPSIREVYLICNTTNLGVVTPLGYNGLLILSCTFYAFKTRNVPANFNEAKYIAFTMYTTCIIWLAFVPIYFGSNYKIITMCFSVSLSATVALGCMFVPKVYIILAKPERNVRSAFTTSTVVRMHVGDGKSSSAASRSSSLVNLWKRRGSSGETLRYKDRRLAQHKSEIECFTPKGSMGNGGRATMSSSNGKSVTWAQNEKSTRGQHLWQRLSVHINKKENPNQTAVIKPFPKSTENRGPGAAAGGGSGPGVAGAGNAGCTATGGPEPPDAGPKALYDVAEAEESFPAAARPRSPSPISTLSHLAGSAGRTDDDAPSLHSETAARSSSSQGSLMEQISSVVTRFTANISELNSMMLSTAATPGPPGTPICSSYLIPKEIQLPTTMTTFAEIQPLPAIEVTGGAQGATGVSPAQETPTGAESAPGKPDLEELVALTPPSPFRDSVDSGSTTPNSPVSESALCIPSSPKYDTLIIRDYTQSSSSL
Method: The mGluR5 receptor binding was determined according to the modified method of Gasparini et. al. (Bioorg. Med. Chem. Lett., 2000, 12, 407). Based on the high homology between the human and rat mGluR5 receptors, rat cerebro-cortical membrane preparation was used to determine the binding characteristics of the reference compounds and novel compounds to the rat mGluR5. The A18 cell line expressing hmGluR5a (purchased from Euroscreen) was used to determine binding characteristics of the chemical compounds to the human mGluR5a receptor. [^3H]-M-MPEP (2 nM) was used as radioligand. The nonspecific binding was determined in the presence of 10 μM M-MPEP.

Ki	Structure (SMILES)
> 500 nM	Cc1ccc(S(=O)(=O)c2cnc3ccccc3c2N2CCN(Cc3ccccc3)CC2)cc1 [Compound 80]
> 500 nM	CCOC(=O)C1CCN(c2c(S(=O)(=O)c3ccccc3)cnc3ccc(CC)cc23)CC1 [Compound 81]
> 500 nM	O=S(=O)(c1ccccc1)c1cnc2cc3c(cc2c1N1CCCC1)OCCO3 [Compound 82]
> 500 nM	CCc1ccc2ncc(S(=O)(=O)c3ccc(C)cc3)c(N(CC)CC)c2c1 [Compound 83]
> 500 nM	CCc1ccc2ncc(S(=O)(=O)c3ccc(Cl)cc3)c(N(CC)CC)c2c1 [Compound 84]
> 500 nM	CCc1ccc2ncc(S(=O)(=O)c3ccc(C)cc3)c(NCc3ccccc3)c2c1 [Compound 85]
> 500 nM	Cc1ccc(S(=O)(=O)c2cnc3ccc(C)cc3c2N2CCCCCC2)cc1 [Compound 86]
> 500 nM	COc1ccc2ncc(S(=O)(=O)c3ccc(C)cc3)c(NCc3ccccc3)c2c1 [Compound 87]
> 500 nM	COc1ccc(S(=O)(=O)c2cnc3ccc(OC)cc3c2N2CCC(C)CC2)cc1 [Compound 88]
200 to 500 nM	O=S(=O)(c1ccccc1)c1cnc2ccccc2c1N1CCCCCC1 [Compound 89]
> 500 nM	Cc1ccc2ncc(S(=O)(=O)c3ccccc3)c(N3CCN(Cc4ccccc4)CC3)c2c1 [Compound 90]
> 500 nM	Cc1ccc(S(=O)(=O)c2cnc3cc4c(cc3c2N2CCC(C)CC2)OCCO4)cc1 [Compound 92]
> 500 nM	Cc1ccc2ncc(S(=O)(=O)c3ccc(Cl)cc3)c(N3CCCCC3)c2c1 [Compound 93]
> 500 nM	Cc1ccc(S(=O)(=O)c2cnc3cc4c(cc3c2N2CCOCC2)OCCO4)cc1 [Compound 94]
> 500 nM	O=S(=O)(c1ccccc1)c1cnc2cc3c(cc2c1N1CCCCCC1)OCCO3 [Compound 95]
> 500 nM	CCc1ccc2ncc(S(=O)(=O)c3ccc(C)cc3)c(N3CCCCC3)c2c1 [Compound 96]
> 500 nM	Cc1ccc(S(=O)(=O)c2cnc3ccccc3c2N2CCC3(CC2)OCCO3)cc1 [Compound 97]
> 500 nM	CCOC(=O)C1CCN(c2c(S(=O)(=O)c3ccc(C)cc3)cnc3ccc(OCC)cc23)CC1 [Compound 98]
> 500 nM	CCOC(=O)C1CCCN(c2c(S(=O)(=O)c3ccc(C)cc3)cnc3ccc(F)cc23)C1 (stereo not drawn) [Compound 99]
> 500 nM	O=S(=O)(c1ccc(Cl)cc1)c1cnc2ccc(F)cc2c1N1CCN(Cc2ccccc2)CC1 [Compound 100]

Ki	Structure (SMILES)
> 500 nM	Cc1ccc(S(=O)(=O)c2cnc3ccccc3c2N2CCOCC2)cc1 [Compound 101]
> 500 nM	CCOc1ccc2ncc(S(=O)(=O)c3ccc(OC)cc3)c(N3CCC(C)CC3)c2c1 [Compound 102]
> 500 nM	COc1ccc2ncc(S(=O)(=O)c3ccc(C)cc3)c(NCc3ccc(F)cc3)c2c1 [Compound 103]
> 500 nM	Cc1ccc(S(=O)(=O)c2cnc3ccc(C)cc3c2N2CCOCC2)cc1 [Compound 104]
> 500 nM	CCc1ccc2ncc(S(=O)(=O)c3ccc(Cl)cc3)c(N3CCOCC3)c2c1 [Compound 105]
> 500 nM	COc1ccc2ncc(S(=O)(=O)c3ccc(Cl)cc3)c(N3CCN(Cc4ccccc4)CC3)c2c1 [Compound 106]
> 500 nM	O=S(=O)(c1ccccc1)c1cnc2ccc(F)cc2c1N1CCCCC1 [Compound 107]
> 500 nM	CC1CCN(c2c(S(=O)(=O)c3ccccc3)cnc3ccc(Cl)cc23)CC1 [Compound 108]
> 500 nM	COc1ccc2ncc(S(=O)(=O)c3ccccc3)c(N3CCC(C)CC3)c2c1 [Compound 109]
> 500 nM	CCN(CC)c1c(S(=O)(=O)c2ccc(C)cc2)cnc2ccc(OC)cc12 [Compound 110]
> 500 nM	COc1ccc2ncc(S(=O)(=O)c3ccccc3)c(N3CCN(Cc4ccccc4)CC3)c2c1 [Compound 111]
> 500 nM	COc1ccc2ncc(S(=O)(=O)c3ccc(Cl)cc3)c(N3CCCCCC3)c2c1 [Compound 112]
> 500 nM	COc1cccc(Nc2c(S(=O)(=O)c3ccc(C)cc3)cnc3ccccc23)c1 [Compound 113]
> 500 nM	CCOc1ccc2ncc(S(=O)(=O)c3ccc(C)cc3)c(N3CCC(C)CC3)c2c1 [Compound 114]
> 500 nM	O=S(=O)(c1ccccc1)c1cnc2cc3c(cc2c1N1CCN(c2ccccc2)CC1)OCCO3 [Compound 115]
> 500 nM	CCOc1ccc2ncc(S(=O)(=O)c3ccccc3)c(N3CCC(C)CC3)c2c1 [Compound 116]
> 500 nM	CCOc1ccc2ncc(S(=O)(=O)c3ccc(C)cc3)c(N3CCN(c4ccccc4F)CC3)c2c1 [Compound 117]
> 500 nM	O=S(=O)(c1ccccc1)c1cnc2ccc(F)cc2c1N1CCCCCC1 [Compound 118]
> 500 nM	CCOc1ccc2ncc(S(=O)(=O)c3ccc(C)cc3)c(N3CCCCCC3)c2c1 [Compound 119]
> 500 nM	O=S(=O)(c1ccc(Cl)cc1)c1cnc2ccc(F)cc2c1N1CCOCC1 [Compound 120]

Ki	Structure (SMILES)
> 500 nM	COc1ccc2ncc(S(=O)(=O)c3ccc(C)cc3)c(NCc3ccc(C)cc3)c2c1 [Compound 121]
> 500 nM	COc1ccc(S(=O)(=O)c2cnc3ccc(Cl)cc3c2NCc2ccc(C)cc2)cc1 [Compound 122]
> 500 nM	Cc1ccc2ncc(S(=O)(=O)c3ccc(Cl)cc3)c(N3CCN(c4ccccc4)CC3)c2c1 [Compound 123]
> 500 nM	CCN(CC)c1c(S(=O)(=O)c2ccccc2)cnc2ccc(F)cc12 [Compound 124]
> 500 nM	CCOc1ccc2ncc(S(=O)(=O)c3ccc(OC)cc3)c(N3CCOCC3)c2c1 [Compound 125]
> 500 nM	CCc1ccc2ncc(S(=O)(=O)c3ccc(OC)cc3)c(N3CCN(C)CC3)c2c1 [Compound 127]
> 500 nM	COc1ccc2ncc(S(=O)(=O)c3ccccc3)c(N3CCN(C)CC3)c2c1 [Compound 128]
> 500 nM	CCOC(=O)N1CCN(c2c(S(=O)(=O)c3ccc(Cl)cc3)cnc3ccccc23)CC1 [Compound 129]
> 500 nM	CCc1ccc2ncc(S(=O)(=O)c3ccc(C)cc3)c(NCc3ccc(F)cc3)c2c1 [Compound 130]
200 to 500 nM	CCOC(=O)N1CCN(c2c(S(=O)(=O)c3ccc(Cl)cc3)cnc3ccc(C)cc23)CC1 [Compound 131]
> 500 nM	CCOC(=O)N1CCN(c2c(S(=O)(=O)c3ccc(C)cc3)cnc3ccc(C)cc23)CC1 [Compound 132]
> 500 nM	CCN(CC)c1c(S(=O)(=O)c2ccc(Cl)cc2)cnc2ccc(F)cc12 [Compound 133]
> 500 nM	CCc1ccc2ncc(S(=O)(=O)c3ccc(OC)cc3)c(N3CCCCC3)c2c1 [Compound 134]
> 500 nM	O=S(=O)(c1ccccc1)c1cnc2cc3c(cc2c1N1CCCCC1)OCCO3 [Compound 135]
> 500 nM	CC1CCN(c2c(S(=O)(=O)c3ccccc3)cnc3ccc(F)cc23)CC1 [Compound 136]
< 200 nM	CC1CCN(c2c(S(=O)(=O)c3ccc(Cl)cc3)cnc3ccc(F)cc23)CC1 [Compound 137]
200 to 500 nM	CC1CCN(c2c(S(=O)(=O)c3cc(Cl)cc(Cl)c3)cnc3ccc(F)cc23)CC1 [Compound 138]
> 500 nM	CC1CCN(c2c(S(=O)(=O)c3cc(F)cc(F)c3)cnc3ccc(F)cc23)CC1 [Compound 139]
< 200 nM	CC1CCN(c2c(S(=O)(=O)c3cccc(C#N)c3)cnc3ccc(F)cc23)CC1 [Compound 140]
< 200 nM	CC1CCN(c2c(S(=O)(=O)c3ccc(F)cc3)cnc3ccc(F)cc23)CC1 [Compound 141]
